Patent US11304919B2, “Utilization of cilastatin in inhibiting renal disorder” (NIIGATA UNIVERSITY, priority 2018, dated 2022)

Assays:
[1] = test system: protein (carrier) used in Reference Example 5; settings: 0-50 mM cilastatin; 10 mM iomeprol, ioversol, iodixanol, iopromide or iohexol solid-phased beads; FIGS. 22-26
Procedure: Different solutions, as mentioned below, were prepared using 100 mM KCL buffer (as mentioned in Reference Example 4) and the protein used in Reference Example 5, and were reacted at 4° C. for 2 hours.
a) Solution containing 25 ng/μL of the protein of interest and 0 mM of the contrast medium
b) Solution containing 25 ng/μL of the protein of interest and 10 mM of the contrast medium
c) Solution containing 25 ng/μL of the protein of interest and 25 mM of the contrast medium
d) Solution containing 25 ng/μL of the protein of interest and 50 mM of the contrast medium
Next, the above-prepared solutions were each added to 5 mg of the 0 mM or 10 mM contrast solid-phased beads dispersed and washed by the procedure described in Reference Example 4, and were reacted at 4° C. for 4 hours. The solution/beads combinations adopted were as mentioned below.
Then, the different mixtures were treated by following the procedure described in Reference Example 4, and heat-eluted samples were prepared from the different reaction solutions.
Different solutions, as mentioned below, were prepared using 100 mM KCL buffer (as mentioned in Reference Example 4), and were reacted at 4° C. for 2 hours.
a′) Solution containing 25 ng/μL of the protein of interest and 0 mM of cilastatin
b′) Solution containing 25 ng/μL of the protein of interest and 10 mM of cilastatin […]

megalin [2] = molecular target: T1, megalin (Mus musculus, UniProt A2ARV4)
Excerpt: In this example, it was verified, using an electron probe microanalyzer (EPMA), whether megalin-dependent internalization of contrast media (iodine) into murine renal proximal tubular epithelial cells was inhibited by treatment with cilastatin.
C57BL/6J mice were divided into the following groups and administered with the following agents from the tail vein.
Therefore, by calculating a ratio of X-ray intensity between iodine (I) and nitrogen (N) (I/N) in a specified area of thin-film biological samples, iodine (I) levels in different samples can be relatively quantified and compared. X-ray count ratio=(X-ray count of iodine/unit area)/(X-ray count of nitrogen/(unit area))
Based on this principle, iodine levels in a specified area were relatively quantified and compared.
Further, 1980 μm^2 regions containing cortex portions were analyzed, and seven 500 μm^2 areas were chosen from the cortex portions so as not to overlap with each other. An average was calculated of the I/N X-ray ratios in the seven areas, and regarded as an I/N X-ray ratio for one individual. Those I/N X-ray ratios for six individuals in each of the a) and b) groups were quantified and compared.

C57BL/6J mice = test: Inhibition of contrast-induced renal injuries in murine contrast nephropathy model (Example 2); type: in vivo, mouse; settings: 200 μL iomeprol + 400 mg/kg cilastatin
Procedure: In order to confirm the ability of cilastatin to inhibit renal injuries, C57BL/6J mice were simultaneously administered with an iodinated contrast medium and cilastatin, and the results were analyzed.
Left kidneys were extracted from the C57BL/6J mice, and 14 days later, right kidney pedicles were ligated for 30 minutes. Thereafter, reperfusion was carried out. […]
a) Contrast medium+cilastatin-treated group: 200 μL of iomeprol (CM)+400 mg/kg cilastatin (CS) (100 LL) b) Contrast medium+normal saline-treated group: 200 μL of iomeprol (CM)+100 μL of NS For each of the groups, after 48 hours from the medication, blood and urine samples were collected, and serum Cr, MN and cystatin C levels, and urinary Cr, NAG and KIM-1 levels were measured. Further, right kidneys were extracted and histologically evaluated by immunostaining with KIM-1 and staining with PAS. […] Serum cystatin C and urinary KIM-1 measurements were contracted to Oriental Yeast Co., Ltd.
0.5±: Clear but weak granular staining present focally along the luminal surface of non-atrophic proximal tubules 1+: Clear but weak granular staining completely surrounding the luminal surface of non-atrophic proximal tubules 2+: Moderately intense granular staining completely surrounding the luminal surface of non-atrophic proximal tubules and extending into intercellular junctions 3+: Strong large granular staining completely surrounding the luminal surface of non-atrophic proximal tubules and extending into intercellular junctions […]
Individuals meeting these criteria were regarded as individuals with onset of contrast nephropathy.

megalin [3] = molecular target: megalin (Rattus norvegicus, UniProt P98158); settings: 1 mg cilastatin injected in advance; 1.5 μg protein of interest; FIG. 27
Procedure: According to the method of Orlando, et al, megalin protein purified from Sprague-Dawley (SD) rat kidneys was immobilized on quartz crystals. To be specific, with the use of an immobilization kit for AFFNIX® (Initium Inc.) and according to the recommended protocol for the kit, a megalin protein solution was prepared in Buffer A as provided with the kit to a concentration of 62.5 μg/mL, and placed and immobilized onto quartz crystals mounted in a holder.
More specifically, the protein of interest was injected in aliquots of the megalin protein-immobilized quartz crystals in 200 μL of buffer to measure frequency. The same measurement was done on quartz crystals, as a control, on which the same amount of bovine serum albumin (BAS) was solid phased instead of megalin. Thus, the specific binding ability of the protein of interest to megalin was analyzed.
Further, aliquots of megalin protein-immobilized quartz crystals in a buffer in which 1 mg of cilastatin was injected in advance were mounted in the measurement instrument, and the frequency was confirmed to be stable, and then, 1.5 μg of the protein of interest was injected to measure frequency over time, whereby the antagonizing activity of cilastatin against the binding of the protein of interest to megalin was analyzed. The same experiment was performed for the control group.

megalin [4] = molecular target: T1, megalin; settings: in vivo
Excerpt: (§1) EPMA is an electron microprobe (EMP) instrument that analyzes the constituent elements of a substance of interest by irradiating electron beams onto the substance and measuring the wavelengths and intensities of characteristic X-rays unique to the different elements, which are generated by the electron beams. […] The behaviors of contrast media per se can be verified by analyzing iodine content distribution.
(§2) In order to use right kidneys for analysis, 3 mm-thick sections containing a kidney pedicle portion were prepared, embedded in OCT compound, freeze-fixed with liquid nitrogen, and stored at −80° C.
(§3) Next, the stored sections were sliced at a thickness of 4 μm using a cryostat (CM1850, Leica Biosystems), and the obtained slices were attached onto carbon-coated grids and freeze-dried overnight.
(§4) 378 μm^2 cortical areas in the prepared tissue slices were analyzed by EPMA (EPMA 1610, Shimadzu Corporation, Kyoto, Japan) to map iodine present in the structures of the contrast media.

megalin [5] = settings: mouse, in vivo
Excerpt: as §1, §2, §3, §4

T1 sequence (A2ARV4 26-4660): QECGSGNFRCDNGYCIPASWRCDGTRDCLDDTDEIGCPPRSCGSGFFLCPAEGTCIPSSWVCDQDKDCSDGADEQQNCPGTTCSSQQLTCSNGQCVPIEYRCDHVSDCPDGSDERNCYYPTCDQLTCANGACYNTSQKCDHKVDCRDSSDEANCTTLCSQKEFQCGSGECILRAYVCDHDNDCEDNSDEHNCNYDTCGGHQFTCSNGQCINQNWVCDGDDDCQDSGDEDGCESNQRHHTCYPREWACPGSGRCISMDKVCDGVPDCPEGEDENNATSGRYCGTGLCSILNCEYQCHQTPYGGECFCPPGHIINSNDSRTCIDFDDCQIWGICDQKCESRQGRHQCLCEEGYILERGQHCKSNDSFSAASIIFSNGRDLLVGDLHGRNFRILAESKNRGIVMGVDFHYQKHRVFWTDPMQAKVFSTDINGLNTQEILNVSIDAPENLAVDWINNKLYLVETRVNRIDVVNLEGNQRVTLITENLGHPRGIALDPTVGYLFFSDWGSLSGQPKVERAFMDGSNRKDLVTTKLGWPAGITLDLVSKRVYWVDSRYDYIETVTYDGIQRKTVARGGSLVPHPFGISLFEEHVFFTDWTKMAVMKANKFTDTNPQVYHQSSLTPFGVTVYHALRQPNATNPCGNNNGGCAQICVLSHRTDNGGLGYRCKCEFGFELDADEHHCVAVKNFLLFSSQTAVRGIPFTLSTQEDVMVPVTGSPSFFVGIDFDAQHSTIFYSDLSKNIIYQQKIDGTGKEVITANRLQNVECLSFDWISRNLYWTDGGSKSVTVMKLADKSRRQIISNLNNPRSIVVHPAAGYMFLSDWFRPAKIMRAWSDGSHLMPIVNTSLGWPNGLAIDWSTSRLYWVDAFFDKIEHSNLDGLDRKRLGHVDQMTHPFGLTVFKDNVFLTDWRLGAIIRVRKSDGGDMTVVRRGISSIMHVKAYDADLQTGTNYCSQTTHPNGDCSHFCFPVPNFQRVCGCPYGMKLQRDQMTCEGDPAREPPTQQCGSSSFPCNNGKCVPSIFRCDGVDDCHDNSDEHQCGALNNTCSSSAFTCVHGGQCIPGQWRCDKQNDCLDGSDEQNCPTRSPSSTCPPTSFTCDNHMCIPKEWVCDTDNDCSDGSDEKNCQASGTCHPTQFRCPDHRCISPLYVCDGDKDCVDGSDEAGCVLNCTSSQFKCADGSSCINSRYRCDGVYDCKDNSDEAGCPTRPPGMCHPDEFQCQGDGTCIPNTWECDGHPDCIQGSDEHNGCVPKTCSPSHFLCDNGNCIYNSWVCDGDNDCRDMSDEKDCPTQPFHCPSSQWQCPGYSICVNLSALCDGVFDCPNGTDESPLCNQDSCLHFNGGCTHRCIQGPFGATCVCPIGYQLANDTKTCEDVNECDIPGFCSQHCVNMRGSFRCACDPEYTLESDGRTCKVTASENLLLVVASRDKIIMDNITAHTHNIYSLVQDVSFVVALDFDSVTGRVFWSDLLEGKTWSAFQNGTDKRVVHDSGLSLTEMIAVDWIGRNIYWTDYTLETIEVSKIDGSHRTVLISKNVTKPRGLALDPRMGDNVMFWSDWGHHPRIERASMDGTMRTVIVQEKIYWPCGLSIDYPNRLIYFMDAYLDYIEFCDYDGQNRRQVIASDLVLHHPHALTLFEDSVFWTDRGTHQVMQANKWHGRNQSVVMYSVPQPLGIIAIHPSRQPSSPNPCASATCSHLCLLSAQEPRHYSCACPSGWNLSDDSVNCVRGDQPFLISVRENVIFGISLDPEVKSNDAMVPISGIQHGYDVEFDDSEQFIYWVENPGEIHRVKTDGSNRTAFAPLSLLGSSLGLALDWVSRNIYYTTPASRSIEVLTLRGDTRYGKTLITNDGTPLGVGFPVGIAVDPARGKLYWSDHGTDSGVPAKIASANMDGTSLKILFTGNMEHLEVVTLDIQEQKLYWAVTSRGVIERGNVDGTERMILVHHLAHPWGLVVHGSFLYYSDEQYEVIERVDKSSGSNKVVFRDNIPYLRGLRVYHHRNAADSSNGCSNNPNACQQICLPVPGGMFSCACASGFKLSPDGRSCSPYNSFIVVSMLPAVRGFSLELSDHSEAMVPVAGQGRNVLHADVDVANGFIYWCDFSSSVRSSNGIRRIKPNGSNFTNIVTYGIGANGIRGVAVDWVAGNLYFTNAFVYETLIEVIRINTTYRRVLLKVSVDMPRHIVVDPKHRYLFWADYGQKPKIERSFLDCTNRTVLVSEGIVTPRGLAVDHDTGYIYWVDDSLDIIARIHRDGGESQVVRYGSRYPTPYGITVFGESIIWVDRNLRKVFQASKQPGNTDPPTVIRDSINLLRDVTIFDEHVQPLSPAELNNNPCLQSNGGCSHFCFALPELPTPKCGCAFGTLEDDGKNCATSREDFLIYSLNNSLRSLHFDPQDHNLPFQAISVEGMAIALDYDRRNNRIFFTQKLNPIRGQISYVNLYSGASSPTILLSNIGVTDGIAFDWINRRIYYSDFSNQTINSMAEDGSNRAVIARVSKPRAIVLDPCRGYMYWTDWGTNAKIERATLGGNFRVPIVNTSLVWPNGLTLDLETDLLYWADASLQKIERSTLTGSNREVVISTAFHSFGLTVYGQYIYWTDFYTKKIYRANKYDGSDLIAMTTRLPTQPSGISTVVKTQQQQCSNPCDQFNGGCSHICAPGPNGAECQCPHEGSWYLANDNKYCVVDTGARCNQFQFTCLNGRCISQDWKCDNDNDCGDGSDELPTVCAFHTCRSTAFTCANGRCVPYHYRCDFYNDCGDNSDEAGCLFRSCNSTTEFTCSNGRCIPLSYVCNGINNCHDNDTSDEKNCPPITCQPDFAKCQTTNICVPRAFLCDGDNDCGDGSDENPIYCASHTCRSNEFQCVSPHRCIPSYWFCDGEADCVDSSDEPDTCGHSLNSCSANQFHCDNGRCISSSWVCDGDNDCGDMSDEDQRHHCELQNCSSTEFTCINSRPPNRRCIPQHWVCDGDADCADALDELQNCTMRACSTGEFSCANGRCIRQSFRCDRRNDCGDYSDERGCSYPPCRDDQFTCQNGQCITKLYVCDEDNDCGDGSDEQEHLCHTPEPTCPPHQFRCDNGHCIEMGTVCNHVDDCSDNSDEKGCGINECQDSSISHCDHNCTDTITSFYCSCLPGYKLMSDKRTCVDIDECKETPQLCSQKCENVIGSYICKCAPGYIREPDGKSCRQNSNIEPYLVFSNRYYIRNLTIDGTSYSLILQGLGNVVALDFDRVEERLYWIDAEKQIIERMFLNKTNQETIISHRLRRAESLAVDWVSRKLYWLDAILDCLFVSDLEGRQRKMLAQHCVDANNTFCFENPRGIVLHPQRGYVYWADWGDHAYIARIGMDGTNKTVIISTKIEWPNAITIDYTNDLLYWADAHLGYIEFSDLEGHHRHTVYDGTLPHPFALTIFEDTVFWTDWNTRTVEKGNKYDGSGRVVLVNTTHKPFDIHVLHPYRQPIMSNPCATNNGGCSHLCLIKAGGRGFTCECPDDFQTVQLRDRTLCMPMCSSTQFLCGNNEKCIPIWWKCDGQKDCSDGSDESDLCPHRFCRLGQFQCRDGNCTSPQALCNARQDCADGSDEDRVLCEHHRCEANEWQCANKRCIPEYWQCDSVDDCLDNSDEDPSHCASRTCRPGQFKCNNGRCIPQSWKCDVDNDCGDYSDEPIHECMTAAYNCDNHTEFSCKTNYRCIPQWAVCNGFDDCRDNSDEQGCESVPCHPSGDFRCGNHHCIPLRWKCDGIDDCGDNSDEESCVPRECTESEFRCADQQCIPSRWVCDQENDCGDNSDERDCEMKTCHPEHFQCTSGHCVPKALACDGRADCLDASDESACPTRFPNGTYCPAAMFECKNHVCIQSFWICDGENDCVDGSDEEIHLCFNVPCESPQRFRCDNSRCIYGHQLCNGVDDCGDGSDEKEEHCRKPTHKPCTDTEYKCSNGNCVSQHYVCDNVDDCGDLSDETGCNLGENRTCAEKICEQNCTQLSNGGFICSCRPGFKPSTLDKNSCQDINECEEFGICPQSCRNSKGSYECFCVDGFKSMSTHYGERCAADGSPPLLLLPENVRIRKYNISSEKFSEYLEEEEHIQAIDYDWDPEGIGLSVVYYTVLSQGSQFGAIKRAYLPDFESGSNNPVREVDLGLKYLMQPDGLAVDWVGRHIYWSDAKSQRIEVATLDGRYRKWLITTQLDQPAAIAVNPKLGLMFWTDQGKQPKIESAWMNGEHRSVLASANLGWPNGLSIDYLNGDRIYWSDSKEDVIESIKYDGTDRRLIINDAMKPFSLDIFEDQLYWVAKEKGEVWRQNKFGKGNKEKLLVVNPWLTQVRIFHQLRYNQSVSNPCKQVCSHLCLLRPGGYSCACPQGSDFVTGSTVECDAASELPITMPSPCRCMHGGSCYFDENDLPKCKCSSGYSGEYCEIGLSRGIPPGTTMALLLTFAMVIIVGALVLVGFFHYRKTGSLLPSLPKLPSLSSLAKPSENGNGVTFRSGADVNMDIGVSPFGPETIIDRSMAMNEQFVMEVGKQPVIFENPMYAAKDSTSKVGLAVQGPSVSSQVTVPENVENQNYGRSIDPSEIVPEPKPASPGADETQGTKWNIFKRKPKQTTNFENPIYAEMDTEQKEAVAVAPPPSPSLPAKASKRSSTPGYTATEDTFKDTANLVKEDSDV

| SMILES | iodine detected in kidney slices by EPMA, control mice (megalin [4]) | iodine contents detected in kidney slices by EPMA, NDRG1-Cre mice versus control mice (megalin [5]) | further results |
| --- | --- | --- | --- |
| CC1(C)C[C@@H]1C(=O)N/C(=C\CCCCSC[C@H](N)C(=O)O)C(=O)O [cilastatin, (Z)-7-[[(R)-2-amino-2-carboxyethyl]thio]-2-[[[(S)-2,2-dimethylcyclopropyl]carbonyl]amino]-2-heptenoic acid] |  |  | band corresponding to the protein of interest bound to contrast-bound beads, in the coexistence of cilastatin [1]: decreased; detection of iodine by EPMA in kidney tissue versus contrast medium+normal saline groups (megalin [2]; 400 mg/kg cilastatin + 100 μL contrast medium, tail vein, FIG. 11 (iomeprol)): decrease in the detection of iodine; I/N X-ray ratio in kidney cortex versus contrast medium+normal saline groups (megalin [2]; 400 mg/kg cilastatin + 100 μL iomeprol, iohexol, ioversol or iodixanol, six individuals per group, FIGS. 12 to 15): significantly (t-test) lower; increase in urinary KIM-1 levels versus contrast medium+normal saline group (C57BL/6J mice; 48 h, FIG. 16): significantly (t-test) reduced; percentage of individuals with onset of contrast nephropathy (C57BL/6J mice; 48 h after medication): 0%; expression of KIM-1 in kidney tissue (staining intensity scores) versus contrast medium+normal saline group (C57BL/6J mice; outer cortices (S1 and S2 segments), FIG. 18): significantly (t-test) lower; change in frequency after injection of the protein of interest onto megalin-immobilized quartz crystals (QCM) (megalin [3]): reduced |
| CC(=O)N(CC(O)CN(C(C)=O)c1c(I)c(C(=O)NCC(O)CO)c(I)c(C(=O)NCC(O)CO)c1I)c1c(I)c(C(=O)NCC(O)CO)c(I)c(C(=O)NCC(O)CO)c1I (stereo not shown) [iodixanol] | High concentrations of iodine were detected | lower |  |
| CC(=O)N(CC(O)CO)c1c(I)c(C(=O)NCC(O)CO)c(I)c(C(=O)NCC(O)CO)c1I (stereo not shown) [iohexol] | High concentrations of iodine were detected | lower |  |
| C[C@H](O)C(=O)Nc1c(I)c(C(=O)NC(CO)CO)c(I)c(C(=O)NC(CO)CO)c1I [iopamidol] | High concentrations of iodine were detected | lower |  |
| COCC(=O)Nc1c(I)c(C(=O)NCC(O)CO)c(I)c(C(=O)N(C)CC(O)CO)c1I (stereo not shown) [iopromide] | High concentrations of iodine were detected | lower |  |
| O=C(NCC(O)CO)c1c(I)c(C(=O)NCC(O)CO)c(I)c(N(CCO)C(=O)CO)c1I (stereo not shown) [ioversol] |  | lower |  |
